These results are taken from article PMC8838787, “The Antiproliferative and Apoptotic Effects of a Novel Quinazoline Carrying Substituted-Sulfonamides: In Vitro and Molecular Docking Study” (Molecules, 2022).

SMILES strings stand for the structures.

Test [1] has as its system MCF-7 (breast) cancer cells. Description: MTT cell viability assay, MCF-7. In kind it is cell-based, human. Particulars: Homo sapiens, MCF7, 48 h, average ± SD (n = 3). Here is the method:
(§1) Compounds 4a–n were subjected to the cytotoxicity screening of the cell lines MCF-7 (breast), LoVo (colon), HepG2 (liver) and A549 (lung) carcinoma cells as well as HUVEC normal cell lines. The MTT assay was employed to assess cytotoxicity after 48 h of treatment with different concentrations of each compound and doxorubicin was used as a reference drug. The results were presented in Table 1 as growth inhibitory concentration (IC50 values).
(§2) Cell viability was determined using 3-(4,5-dimethylthiazol-2-yl)-2,5-diphenyl tetrazolium bromide (MTT) assay as stated previously. In brief, A549 (lung), HepG2 (liver), LoVo (colon), MCF-7 (breast) cancer cells as well as normal cells (HUVEC) were seeded in 96-well plates (10^5 per well) and compounds were added in a different final concentration. All cells were treated for 48 h, and then 10μL of MTT reagent (5 mg/mL) was added to each well and further incubated for 4 h. Thereafter, 0.1 mL of acidified isopropanol was added to solubilize formazan product and the developed color was measured at 570 nm in Microplate ELISA Reader (BioTek, Elx-800, Winooski, VT, USA). The IC50 values (concentration required for 50% inhibition of cell viability) were calculated using dose response curve. Cell viability was calculated as = (Ab Treated/Ab Control) × 100.
(§3) The A549, HepG2, LoVo and MCF-7 cancer cell lines were obtained from the German Collection of Microorganisms and Cell Cultures (DSMZ) (Braunschweig, Germany). For Human umbilical vein endothelial cells (HUVEC cells), it was purchased from American Type Culture Collection (16549; Cat no. PCS-100-010; ATTCC, Manassas, VA, USA).
Background: Formazan colour is commonly taken as a measure of viable cells.

The subject of the next test is HUVEC normal cells. The experiment in a line: MTT cell viability assay, normal HUVEC. In kind it is cell-based. Particulars: Homo sapiens, 48 h, average ± SD (n = 3). Here is the method: as §1, §2, §3
A further test has as its system MCF-7 cells. The experiment in a line: Cell cycle analysis by PI staining and flow cytometry. It counts as cell-based, human. As to conditions: 24 h, mean ± SD, control 57.91 ± 0.61%. Here is the method:
Indeed, designing of new chemotherapeutic drugs targeting cell cycle progression and apoptosis is considered as an attractive strategy. To explore the antiproliferative effect of compounds 4d and 4f, cell-cycle analysis was performed in MCF-7 cells were examined. The cells were treated with various concentrations of both compound for 24 h, stained with propidium iodide (PI) and analyzed by flow cytometry. As shown in (Figure 2), the incubation of MCF-7 cells with (1.25, 2.5, and 5 μM) of compound 4d for 24 h increased the percentage of cells at G1 (from 57.91 ± 0.61% in control) to 62.51 ± 0.14%, 64.95 ± 0.21% and 66.55 ± 0.78% in treated cells, respectively.
Cell cycle distribution was evaluated by PI staining as previously described. Briefly, MCF-7 cells were seeded and incubated for a period of 24 h to allow for attachment. Subsequently, cells were exposed to different concentrations of compounds 4d and 4f. After 24 h, cells were harvested and fixed in 70% ethanol. Thereafter, cells were washed with PBS, resuspended in 1 mL of PBS containing PI (50 μg/mL), RNase A (0.5 mg/mL), sodium citrate (0.1%) and Triton X-100 (0.1%), then incubated for 15 min in the dark at room temperature. Flow cytometry was carried out by a FACS Scan Flow Cytometer (Cytomics FC 500; Beckman Coulter, Brea, CA, USA). The data were analyzed using CXP software V. 3.0.
Background: A flow cytometer gives signals particle by particle.

The next test has as its system Bax. Description: RT-PCR of apoptotic genes, Bax. In kind it is cell-based, human. Particulars: 24 h, vs control, normalized to β-actin. The source says:
(§4) We next used reverse transcription polymerase chain reaction (RT-PCR) and Western blot analysis to look at Bax (proapoptotic), Bcl-2 (antiapoptotic) and caspase 7 (executioner caspase) expression at gene and protein level as an additional marker of apoptosis occurrence. In fact, apoptotic cell death is mostly directed by the levels of Bcl-2 family, whether they are pro-apoptotic or antiapoptotic and targeting these molecules as a therapeutic strategy is continuously under development. As predicted, we observed an upregulation in the expression of Bax in MCF-7 treated cells to (1.7-, 2- and 2.4-fold) with compound 4d and to (1.2-, 1.4- and 1.6-fold) with compound 4f at (1.25, 2.5 and 5 µM) respectively (Figure 6). […] This shifting in Bax to Bcl-2 ratio usually started caspases activation which plays a critical role in apoptosis execution. Among all caspases, caspase 7 is considered as one of the most crucial executioner caspases that mediate cell death, and its expression strongly correlates with apoptosis stimulation.
(§5) The MCF-7 cells (0.1 × 10^6) in 12 well plates were treated with different concentrations of compounds 4d and 4f for 24 h and untreated cells were used as a control. After 24 h of treatment, cell culture media was removed and the cells were lysed with Trizol (Invitrogen, Waltham, MA, USA), and total RNA was extracted from all the samples [42]. The RNA was estimated by Nano-drop and 1 µg of RNA was used in the cDNA synthesis. The cDNA was synthesized from RNA by using a cDNA synthesis kit (Invitrogen, Thermo Fisher Scientific, lnc., Waltham, MA, USA) according to the manufacturer’s instruction. After Reverse transcription at 42 °C for 60 min, RT-PCR was performed using 5× Firepol Master Mix ready to load (Solis BioDyne) according to manufacturer’s instruction. RT-PCR was used to analyze the gene expression level of P53, Bcl2, Bax and caspase 7 using specific sets of primers for each gene, while β-actin was utilized as a housekeeping gene. The program was run as follows, initial denaturation at 95 °C for 5 min; denaturation at 95 °C for 30 s; annealing at 55 °C for 45 s; elongation at 72 °C for 45 s (30 Cycles) and final extension at 72 °C for 10 min. The RT-PCR products were electrophoresed on a 1.2% agarose gel containing ethidium bromide and the gel was imaged on a Licor machine.

Another test has as its system Bcl-2. The experiment in a line: RT-PCR of apoptotic genes, Bcl-2. It counts as cell-based, human. As to conditions: 24 h, vs DMSO-vehicle treated cells.
Source text: as §4, §5

Another test has as its system caspase 7. Description: RT-PCR of apoptotic genes, caspase 7. It counts as cell-based, human. As to conditions: 24 h, relative to untreated cells.
Source text: as §4, §5

What is called IC50 is the concentration that gives 50% inhibition. A high value points to a need for much substance. For `COc1cccc2c(=O)n(-c3ccc(S(=O)(=O)NCC(=O)Nc4ccc(C)cc4)cc3)c(SCC(=O)Nc3ccc(C)cc3)nc12` [Compound 4d], the IC50 is 2.5 ± 0.2 µM in test [1] and 7.8 ± 0.6 µM with HUVEC normal cells. Further, the “percentage of cells at G1” value with MCF-7 cells (1.25 μM) amounted to 62.51 ± 0.14%; in the test on MCF-7 cells (2.5 μM), 64.95 ± 0.21%; with MCF-7 cells (5 μM) it was 66.55 ± 0.78%. In addition, the “expression of Bax (RT-PCR)” value in the test on Bax (MCF-7, 1.25 µM) was 1.7 fold; in the test on Bax (MCF-7, 2.5 µM), 2 fold; in the test with Bax (MCF-7, 5 µM), 2.4 fold. For the same compound, the “Bcl-2 expression (RT-PCR)” value with Bcl-2 (MCF-7, 1.25 µM) came out at 0.88 fold; in the test with Bcl-2 (MCF-7, 2.5 µM), 0.68 fold; in the test on Bcl-2 (MCF-7, 5 µM) it was 0.49 fold. Further, the “expression of caspase 7 (RT-PCR)” value in the test with caspase 7 (MCF-7, 2.5 µM) is 1.35 fold; in the test on caspase 7 (MCF-7, 5 µM), 1.58 fold.

Regarding `CCc1cccc(NC(=O)CNS(=O)(=O)c2ccc(-n3c(SCC(=O)Nc4cccc(CC)c4)nc4c(OC)cccc4c3=O)cc2)c1` [Compound 4f, N-(3-ethylphenyl)-2-((3-(4-(N-(2-((3-ethylphenyl)amino)-2-oxoethyl)sulfamoyl)-phe-nyl)-8-methoxy-4-oxo-3,4-dihydroquinazolin-2yl)thio)acetamide], the IC50 was 5 ± 0.24 µM in test [1] and 17.9 ± 0.6 µM in the test with HUVEC normal cells. The “percentage of cells at G1” value in the test with MCF-7 cells (1.25 μM) is on record as 61.65 ± 0.21%; in the test on MCF-7 cells (2.5 μM), 62.65 ± 0.35%; in the test with MCF-7 cells (5 μM), 65.15 ± 0.36%. Moreover, the “expression of Bax (RT-PCR)” value with Bax (MCF-7, 1.25 µM) is recorded as 1.2 fold; in the test with Bax (MCF-7, 2.5 µM) it was 1.4 fold; in the test with Bax (MCF-7, 5 µM), 1.6 fold. Besides, the “Bcl-2 expression (RT-PCR)” value in the test on Bcl-2 (MCF-7, 1.25 µM) is on record as 0.92 fold; in the test on Bcl-2 (MCF-7, 2.5 µM) it was 0.68 fold; with Bcl-2 (MCF-7, 5 µM) it was 0.62 fold. Also, the “expression of caspase 7 (RT-PCR)” value is recorded as 1.35 fold with caspase 7 (MCF-7, 2.5 µM) and 1.58 fold with caspase 7 (MCF-7, 5 µM).
